Assay results taken from PubChem BioAssay (NCI).
Where “and” joins values, the source holds several entries; their conditions need not be identical. Equal entries are not always repeated.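 Test compounds were applied to cells in 96-well plates for 48 hours at 5 doses. At the GI50, growth is halved. TGI denotes the concentration required for complete inhibition of growth.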

Tests used:
Assay in all cases: NCI anticancer screen, dose series, 48 h
[1] = system: TK-10 renal
[2] = system: OVCAR-5 ovarian
[3] = system: OVCAR-8 ovarian
[4] = system: HOP-62 NSCLC
[5] = system: SNB-19 CNS
[6] = system: COLO 205 colon
[7] = system: SK-MEL-28 melanoma
[8] = system: ACHN renal
[9] = system: SR leukemia
[10] = system: LXFL 529 NSCLC
[11] = system: RPMI-8226 leukemia
[12] = system: K-562 leukemia
[13] = system: SN12C renal
[14] = system: SNB-75 CNS
[15] = system: A549 NSCLC
[16] = system: SK-OV-3 ovarian
[17] = system: UACC-62 melanoma
[18] = system: IGROV1 ovarian
[19] = system: SK-MEL-5 melanoma
[20] = system: UACC-257 melanoma
[21] = system: U251 CNS
[22] = system: SW-620 colon
[23] = system: HCT-116 colon
[24] = system: LOX IMVI melanoma
[25] = system: CCRF-CEM leukemia
[26] = system: HCT-15 colon
[27] = system: HL-60(TB) leukemia
[28] = system: SF-268 CNS
[29] = system: KM20L2 colon
[30] = system: M19-MEL melanoma
[31] = system: SF-295 CNS
[32] = system: NCI-H522 lung
[33] = system: EKVX NSCLC
[34] = system: HOP-18 NSCLC
[35] = system: OVCAR-4 ovarian
[36] = system: A498 renal
[37] = system: XF 498 CNS
[38] = system: KM12 colon
[39] = system: 786-0 renal
[40] = system: DMS 114 small cell lung
[41] = system: MALME-3M melanoma
[42] = system: UO-31 renal
[43] = system: RXF-631 renal
[44] = system: SK-MEL-2 melanoma
[45] = system: RXF 393 renal
[46] = system: SNB-78 CNS
[47] = system: SF-539 CNS
[48] = system: MOLT-4 leukemia
[49] = system: DLD-1 colon
[50] = system: DMS 273 small cell lung
[51] = system: M14 melanoma
[52] = system: HCC-2998 colon
[53] = system: NCI-H23 lung
[54] = system: NCI-H460 lung
[55] = system: NCI-H226 lung
[56] = system: OVCAR-3 ovarian
[57] = system: CAKI-1 renal
[58] = system: HT29 colon
[59] = system: HOP-92 NSCLC

## C=C(C)C1CC=C(C)CC1 (centres undefined)
[1]
  GI50: > 0.1 mM
  TGI: > 0.1 mM and 1.76 mM
[2]
  GI50: > 0.1 mM
  TGI: > 0.1 mM and 2.42 mM
[3]
  GI50: > 0.1 mM
  TGI: > 0.1 mM and 1.86 mM
[4]
  GI50: > 0.1 mM
  TGI: > 0.1 mM and 1.63 mM
[5]
  GI50: > 0.1 mM
  TGI: > 0.1 mM and 1.87 mM
[6]
  GI50: > 0.1 mM
  TGI: > 0.1 mM and 1.76 mM
[7]
  GI50: > 0.1 mM
  TGI: > 0.1 mM and 1.68 mM
[8]
  GI50: > 0.1 mM
  TGI: > 0.1 mM and 1.57 mM
[9]
  GI50: > 0.1 mM
  TGI: > 0.1 mM and 2.05 mM
[10]
  GI50: > 0.1 mM
  TGI: > 0.1 mM and 1.55 mM
[11]
  TGI: > 0.1 mM
[12]
  GI50: > 0.1 mM
  TGI: > 0.1 mM and 1.72 mM
[13]
  GI50: > 0.1 mM
  TGI: > 0.1 mM and 1.64 mM
[14]
  GI50: > 0.1 mM
  TGI: > 0.1 mM and 1.71 mM
[15]
  GI50: > 0.1 mM
  TGI: > 0.1 mM and 1.79 mM
[16]
  GI50: > 0.1 mM
  TGI: > 0.1 mM and 1.9 mM
[17]
  GI50: > 0.1 mM
  TGI: > 0.1 mM and 1.55 mM
[18]
  GI50: > 0.1 mM
  TGI: > 0.1 mM and 1.83 mM
[19]
  GI50: > 0.1 mM
  TGI: > 0.1 mM and 1.56 mM
[20]
  GI50: > 0.1 mM
  TGI: > 0.1 mM and 1.85 mM
[21]
  GI50: > 0.1 mM
  TGI: > 0.1 mM and 1.48 mM
[22]
  GI50: > 0.1 mM
  TGI: > 0.1 mM and 1.59 mM
[23]
  GI50: > 0.1 mM
  TGI: > 0.1 mM and 1.62 mM
[24]
  GI50: > 0.1 mM
  TGI: > 0.1 mM and 1.62 mM
[25]
  GI50: > 0.1 mM
  TGI: > 0.1 mM and 1.67 mM
[26]
  TGI: 1.62 mM
[27]
  GI50: > 0.1 mM
  TGI: > 0.1 mM and 1.72 mM
[28]
  GI50: > 0.1 mM
  TGI: > 0.1 mM and 1.68 mM
[29]
  GI50: > 0.1 mM
  TGI: > 0.1 mM and 1.75 mM
[30]
  GI50: > 0.1 mM
  TGI: > 0.1 mM and 1.58 mM
[31]
  GI50: > 0.1 mM
  TGI: > 0.1 mM and 1.63 mM
[32]
  GI50: > 0.1 mM
  TGI: > 0.1 mM and 1.71 mM
[33]
  GI50: > 0.1 mM
  TGI: > 0.1 mM and 1.83 mM
[34]
  TGI: > 0.1 mM
[35]
  GI50: > 0.1 mM
  TGI: > 0.1 mM and 2.07 mM
[36]
  TGI: 1.61 mM
[37]
  GI50: > 0.1 mM
  TGI: > 0.1 mM and 1.72 mM
[38]
  GI50: > 0.1 mM
  TGI: > 0.1 mM and 1.83 mM
[39]
  GI50: > 0.1 mM
  TGI: > 0.1 mM and 1.62 mM
[40]
  GI50: > 0.1 mM
  TGI: > 0.1 mM and 1.65 mM
[41]
  GI50: > 0.1 mM
  TGI: > 0.1 mM and 1.69 mM
[42]
  GI50: > 0.1 mM
  TGI: > 0.1 mM and 1.62 mM
[43]
  GI50: > 0.1 mM
  TGI: > 0.1 mM and 1.72 mM
[44]
  GI50: > 0.1 mM
  TGI: > 0.1 mM and 1.72 mM
[45]
  GI50: > 0.1 mM
  TGI: > 0.1 mM and 1.73 mM
[46]
  GI50: > 0.1 mM
  TGI: > 0.1 mM and 1.96 mM
[47]
  GI50: > 0.1 mM
  TGI: > 0.1 mM and 1.69 mM
[48]
  GI50: > 0.1 mM
  TGI: > 0.1 mM and 2.18 mM
[49]
  GI50: > 0.1 mM
  TGI: > 0.1 mM and 1.61 mM
[50]
  GI50: > 0.1 mM
  TGI: > 0.1 mM and 1.72 mM
[51]
  GI50: > 0.1 mM
  TGI: > 0.1 mM and 1.7 mM
[52]
  GI50: > 0.1 mM
  TGI: > 0.1 mM and 1.73 mM
[53]
  GI50: > 0.1 mM
  TGI: > 0.1 mM and 1.69 mM
[54]
  GI50: > 0.1 mM
  TGI: > 0.1 mM and 1.73 mM
[55]
  GI50: > 0.1 mM
  TGI: > 0.1 mM and 1.57 mM
[56]
  GI50: > 0.1 mM
  TGI: > 0.1 mM and 1.59 mM
[57]
  GI50: > 0.1 mM
  TGI: > 0.1 mM and 1.68 mM
[58]
  GI50: > 0.1 mM
  TGI: > 0.1 mM and 1.73 mM
[59]
  GI50: > 0.1 mM
  TGI: > 0.1 mM and 1.53 mM
